Here are results for 4 compounds from article PMC9405123, “Design, Synthesis and Mechanistic Studies of Novel Isatin-Pyrazole Hydrazone Conjugates as Selective and Potent Bacterial MetAP Inhibitors” (Antibiotics, 2022).

Values after ≈ are worked out from the molar mass of the structure shown. Read-outs that look alike come from different tables or passages of the source. Some results are limits rather than exact numbers.

A word on the MIC: it is the lowest concentration that inhibits growth of the organism. As usually defined, the inhibition is the percentage by which the read-out fell short of the control. The low end stands for little suppression, the high end for strong suppression. The term MBC denotes the smallest concentration meeting the test's criterion for killing. The low end stands for more potent killing, the high end for less potent killing. As a reminder, the Ki is a dissociation constant, usually derived from enzyme kinetics or from competition with a known ligand. Low values mean higher affinity, high ones lower affinity. In general, melting point refers to the temperature, or range, at which the solid turns liquid.

The test system of data set [1] is Staphylococcus aureus. Conditions: cited from earlier work.
The test system of data set [2] is B. subtilis. Put plainly: Growth inhibition screening (broth dilution). The class given is cell-based, Bacillus subtilis. The method, then:
(§1) In vitro screening of the compounds (PS1–14) was performed to assess the antibacterial activity against three Gram-positive (Staphylococcus aureus, Enterococcus faecalis and Bacillus subtilis,) and three Gram-negative (Pseudomonas aeruginosa, Klebsiella pneumonia and Escherichia coli) bacterial strains using the standard NCCLS broth dilution assay. The study’s standard drugs were ciprofloxacin (CIP) and ampicillin (AMP). Compounds were dissolved in a polar solvent (DMSO) and distributed into a 96-well plate in 200 µL of nutrient broth medium, with a final concentration of the compounds […] in each well. The bacterial cells (about 2.5 × 10^5 cells/mL) were inoculated into each well and incubated at 37 °C overnight. After incubation, the growth was measured by turbidity of the culture at 590 nm by spectrophotometer.
For orientation: In broth dilution the organism is exposed to a series of concentrations in liquid medium.

Data set [3] has as its system S. aureus. Put plainly: Minimum inhibitory concentration (broth dilution). It is filed as cell-based. Conditions: Staphylococcus aureus, alone.
In data set [4] the test system is S. aureus. Put plainly: Growth inhibition screening (broth dilution). The class given is cell-based, Staphylococcus aureus. To be noted: Staphylococcus aureus. The method, then: as §1
The subject of data set [5] is B. subtilis. As to the kind of experiment: Minimum bactericidal concentration. The class given is cell-based, Bacillus subtilis.
Data set [6] has as its system E. coli. Put plainly: Minimum bactericidal concentration. The class given is cell-based, Escherichia coli.
The subject of data set [7] is K. pneumoniae. Put plainly: Growth inhibition screening (broth dilution). The class given is cell-based, Klebsiella pneumonia. The method, then: as §1
Data set [8] concerns K. pneumoniae. As to the kind of experiment: Combination study with AMP or CIP.
Data set [9] deals with EfMetAP1a (Enterococcus faecalis, UniProt Q832M5). As to the kind of experiment: MetAP enzyme inhibition, Morrison Ki (Met-AMC fluorescence). The class given is biochemical. To be noted: Morrison Ki method.
Data set [10] deals with K. pneumoniae. As to the kind of experiment: Minimum inhibitory concentration (broth dilution). The class given is cell-based, Klebsiella pneumonia. Conditions: Klebsiella pneumoniae, alone, read-out: MIC.
The test system of data set [11] is E. faecalis. As to the kind of experiment: Combination study with AMP or CIP.
In data set [12] the test system is P. aeruginosa. Put plainly: Minimum bactericidal concentration. The class given is cell-based, Pseudomonas aeruginosa.
The target in data set [13] is T1, MtMetAP1c (Mycobacterium tuberculosis, UniProt P9WK19).
T1 construct: made in house
Put plainly: MetAP enzyme inhibition, Morrison Ki (Met-AMC fluorescence). It is filed as biochemical, M. tuberculosis. Conditions: Morrison Ki method. The method, then:
MetAP appears to serve a vital role in the co- or post-translational modification of proteins, making it essential for bacterial cell metabolism and survival. In this study, all enzymes, which were used for this study, including MtMetAP1c (M. tuberculosis), EfMetAP1a (E. faecalis), SpMetAP1a (S. pneumoniae) and HsMetAP1b (H. sapiens) enzymes, were expressed and purified in our lab as previously reported. All compounds prepared 10 mM stocks in DMSO and were used for enzyme inhibition studies. The concentration of each enzyme is adjusted such that they have similar reaction rates (HsMetAp1b, 1 µM; SpMetAP1a, 5 µM; EfMetAP1a, 1 µM; MtMetAP1c, 1 µM;) as reported earlier. All assays were performed in […] reaction containing 50 mM HEPES (pH 7.5 for SpMetAP1a and HsMetAP1b; 8.0 for EfMetAP1a, MtMetAP1c, […]), 150 mM NaCl, and CoCl2 (three molar equivalents of corresponding enzymes). The reaction was started by adding 50 μM L-Methionine 7-amido-4-methyl coumarin (Met-AMC) and continuously monitoring the fluorescence of released 7-amino-4-methyl coumarin (AMC) (380 nm excitation and 460 nm emission) in a microplate multimode reader (TECAN, Austria). The maximum percentage of inhibition against enzymes is calculated at […] compound concentration. […] The Ki values were determined according to the Morrison method using three different concentrations of substrates and ten different concentrations of the inhibitor. All experiments were performed in triplicate. GraphPad Prism version 8.0.0 (San Diego, CA, USA) was used to determine all the kinetic parameters.

Data set [14] concerns E. coli. Put plainly: Combination study with AMP or CIP.
The test system of data set [15] is P. aeruginosa. As to the kind of experiment: Minimum inhibitory concentration (broth dilution). It is filed as cell-based. To be noted: Pseudomonas aeruginosa, alone.
Data set [16] deals with E. coli. As to the kind of experiment: Minimum inhibitory concentration (broth dilution). The class given is cell-based, Escherichia coli. To be noted: Escherichia coli, alone, read-out: MIC.
In data set [17] the target is SpMetAP1a (Streptococcus pneumoniae, UniProt Q8DPV1). Put plainly: MetAP enzyme inhibition, Morrison Ki (Met-AMC fluorescence). It is filed as biochemical. Conditions: Morrison Ki method.
Data set [18] concerns P. aeruginosa. As to the kind of experiment: Growth inhibition screening (broth dilution). It is filed as cell-based, Pseudomonas aeruginosa. The method, then:
as §1

Data set [19] concerns S. aureus. As to the kind of experiment: Minimum bactericidal concentration. It is filed as cell-based, Staphylococcus aureus.
The target in data set [20] is T2, HsMetAP1b (Homo sapiens, UniProt P53582).
T2 construct: made in house
As to the kind of experiment: MetAP enzyme inhibition, Morrison Ki (Met-AMC fluorescence). To be noted: Morrison Ki method. The class given is biochemical, H. sapiens.

Data set [21] has as its system P. aeruginosa. Put plainly: Combination study with AMP or CIP.
Data set [22] deals with K. pneumoniae. As to the kind of experiment: Minimum bactericidal concentration. It is filed as cell-based, Klebsiella pneumonia.
Data set [23] has as its system E. faecalis. Put plainly: Minimum bactericidal concentration. The class given is cell-based, Enterococcus faecalis.
The test system of data set [24] is S. aureus. Put plainly: Combination study with AMP or CIP.
The test system of data set [25] is E. coli. Put plainly: Growth inhibition screening (broth dilution). The class given is cell-based, Escherichia coli. The method, then:
as §1

For data set [26], the system named is E. faecalis. Put plainly: Growth inhibition screening (broth dilution). It is filed as cell-based, Enterococcus faecalis. The method, then: as §1
Data set [27] concerns B. subtilis. Put plainly: Minimum inhibitory concentration (broth dilution). It is filed as cell-based. To be noted: Bacillus subtilis, alone.
The test system of data set [28] is B. subtilis. Put plainly: Combination study with AMP or CIP.
Data set [29] deals with E. faecalis. Put plainly: Minimum inhibitory concentration (broth dilution). Conditions: Enterococcus faecalis, alone. It is filed as cell-based.

T1 sequence (P9WK19 whole entry): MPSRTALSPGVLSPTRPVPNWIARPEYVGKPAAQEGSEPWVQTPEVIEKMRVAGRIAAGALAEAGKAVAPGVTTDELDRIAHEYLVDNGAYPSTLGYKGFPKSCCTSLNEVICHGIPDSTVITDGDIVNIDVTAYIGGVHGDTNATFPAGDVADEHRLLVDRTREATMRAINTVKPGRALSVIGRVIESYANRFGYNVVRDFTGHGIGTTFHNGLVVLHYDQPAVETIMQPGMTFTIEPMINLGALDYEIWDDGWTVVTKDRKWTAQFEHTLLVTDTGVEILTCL
Chain of SpMetAP1a (Q8DPV1 entry or part of it): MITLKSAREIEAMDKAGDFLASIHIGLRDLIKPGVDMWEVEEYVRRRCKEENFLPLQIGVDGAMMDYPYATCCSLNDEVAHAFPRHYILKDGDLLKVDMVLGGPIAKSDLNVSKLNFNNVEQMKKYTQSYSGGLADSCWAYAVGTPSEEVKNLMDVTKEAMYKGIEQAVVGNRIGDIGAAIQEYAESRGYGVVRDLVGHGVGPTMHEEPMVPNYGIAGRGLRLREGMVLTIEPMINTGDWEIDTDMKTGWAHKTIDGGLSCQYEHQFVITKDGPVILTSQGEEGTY
Chain of EfMetAP1a (Q832M5 entry or part of it): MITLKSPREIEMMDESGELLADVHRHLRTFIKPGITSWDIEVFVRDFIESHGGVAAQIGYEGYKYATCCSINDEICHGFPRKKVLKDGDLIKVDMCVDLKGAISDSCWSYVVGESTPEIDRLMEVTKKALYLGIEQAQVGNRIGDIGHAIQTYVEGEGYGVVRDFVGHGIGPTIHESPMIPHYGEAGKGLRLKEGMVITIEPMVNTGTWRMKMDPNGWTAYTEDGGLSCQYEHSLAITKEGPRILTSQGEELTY

For the compound `O=C1Nc2ccc(Cl)cc2/C1=N/NC(=O)c1ccc(N2C(=O)/C(=C\c3ccccc3)N=C2c2ccccc2)cc1` [B], in [1], the MIC was 12 µg/mL (≈ 22 µM).
As for `COc1ccc([C@]2(C)[C@@H](Cl)C(=O)N2NC(=O)c2cc(-c3ccc(Cl)cc3)n[nH]2)cc1` [C], the MIC in data set [1] was 0.0025 µg/mL (≈ 0.00561 µM).
In the case of `Cn1nc(C(=O)NC(=O)Nc2ccccc2)c(C(=O)c2ccccc2)c1-c1ccccc1` [D], the MIC in data set [1] was 310 µg/mL (≈ 730 µM).
`O=C1Nc2cc(Cl)c(F)cc2/C1=N\NC(=O)c1cc(-c2cccc(Br)c2)n[nH]1` [PS6, (E)-3-(3-Bromophenyl)-N′-(6-Chloro-5-Fluoro-2-Oxoindolin-3-Ylidene)-1H-Pyrazole-5-Carbohydrazide]: the melting point fell in the range of 191 to 194 °C. Also, the “% Growth Inhibition at 250 µg/mL” value in data set [2] is “more than 70%”. The “% Growth Inhibition at 250 µg/mL” value in data set [2] (listed as C00006) is 100%. Also, the MIC in data set [3] was found to be 16 µg/mL (≈ 34.6 µM). At 250 µg/mL the inhibition in [4] was 61%. The “MBC/MIC Ratio (R*)” value in data set [5] worked out at 2. Moreover, the MBC in data set [5] (Bacillus subtilis) was 16 µg/mL (≈ 34.6 µM). The “MBC/MIC Ratio (R*)” value in [6] is given as 8. Moreover, in data set [6] (Escherichia coli), the MBC was determined as 256 µg/mL (≈ 553 µM). This compound showed an inhibition at 250 µg/mL in data set [7] (Klebsiella pneumoniae) of over 70%. Also, in data set [7] (listed as C00006), the “% Growth Inhibition at 250 µg/mL” value is listed as 80%. In addition, the “MIC in Combination” value in data set [8] (combination PS6 + AMP) turned out to be 4 µg/mL. In addition, in data set [8] (combination PS6 + CIP), the “MIC in Combination” value was found to be 8 µg/mL. For the same compound, the FICI in [8] (combination with AMP) is on record as 0.18. In addition, in [8] (combination with CIP), the FICI is given as 0.62; the “Mode of Interaction” value is “Indifferent (in between 0.5 and 4)”. Further, the Ki in [9] was 1.65 ± 0.31 µM. Further, the MIC in data set [10] was 64 µg/mL (≈ 138 µM). In addition, the “MIC in Combination” value in data set [11] (combination PS6 + AMP) amounted to 1 µg/mL. The “MIC in Combination” value in data set [11] (combination PS6 + CIP) was 4 µg/mL. In [11] (combination with AMP), the FICI was 0.09. The FICI in [11] (combination with CIP) was 0.31. In addition, the “MBC/MIC Ratio (R*)” value in data set [12] was found to be 8. For the same compound, in [12] (Pseudomonas aeruginosa), the MBC was determined as 256 µg/mL (≈ 553 µM). The compound further displayed a Ki in data set [13] of 0.74 ± 0.06 µM. Moreover, the “MIC in Combination” value in data set [14] (combination PS6 + AMP) came to 4 µg/mL. Besides, the “MIC in Combination” value in data set [14] (combination PS6 + CIP) came out at 8 µg/mL. Moreover, the FICI in [14] (combination with AMP) came out at 0.25. In addition, in data set [14] (combination with CIP), the FICI was 0.31. This compound came in with an MIC in data set [15] of 32 µg/mL (≈ 69.2 µM). The MIC in data set [16] is 32 µg/mL (≈ 69.2 µM). Also, affinity in data set [17] was put at a Ki of 2.55 ± 0.11 µM. Also, in data set [18], the “% Growth Inhibition at 250 µg/mL” value is recorded as “more than 70%”. Also, the “% Growth Inhibition at 250 µg/mL” value in data set [18] (listed as C00006) is on record as 100%. In [19], the “MBC/MIC Ratio (R*)” value is 32. The MBC in data set [19] (Staphylococcus aureus) came to 512 µg/mL (≈ 1110 µM). The compound further had an inhibitory constant (Ki) in data set [20] of 172 ± 4.8 µM. The “MIC in Combination” value in data set [21] (combination PS6 + AMP) was found to be 4 µg/mL. Further, in data set [21] (combination PS6 + CIP), the “MIC in Combination” value came to 4 µg/mL. Also, in data set [21] (combination with AMP), the FICI is recorded as 0.25. Further, in data set [21] (combination with CIP), the FICI worked out at 0.25 and the “Mode of Interaction” value is reported as “Synergistic (FICI value is less than or equal to 0.5)”. Also, the “MBC/MIC Ratio (R*)” value in [22] is on record as 2. The same compound had an MBC in data set [22] (Klebsiella pneumoniae) of 128 µg/mL (≈ 277 µM). In data set [23], the “MBC/MIC Ratio (R*)” value came to 2. In data set [23] (Enterococcus faecalis), the MBC is 32 µg/mL (≈ 69.2 µM). For the same compound, the “MIC in Combination” value in data set [24] (combination PS6 + AMP) stood at 1 µg/mL. The “MIC in Combination” value in data set [24] (combination PS6 + CIP) turned out to be 8 µg/mL. Moreover, the FICI in data set [24] (combination with AMP) came to 0.31. Further, in [24] (combination with CIP), the FICI was found to be 1; the “Mode of Interaction” value is “Indifferent (in between 0.5 and 4)”. For the same compound, the “% Growth Inhibition at 250 µg/mL” value in data set [25] is listed as “more than 70%”. Besides, in data set [25] (listed as C00006), the “% Growth Inhibition at 250 µg/mL” value is recorded as 97%. This compound yielded an inhibition at 250 µg/mL in data set [26] (Enterococcus faecalis) of over 70%. In addition, the “% Growth Inhibition at 250 µg/mL” value in data set [26] (listed as C00006) amounted to 73%. The same compound had a minimum inhibitory concentration (MIC) in data set [27] of 8 µg/mL (≈ 17.3 µM). For the same compound, the “MIC in Combination” value in data set [28] (combination PS6 + AMP) amounted to 2 µg/mL. For the same compound, the “MIC in Combination” value in [28] (combination PS6 + CIP) was determined as 8 µg/mL. The FICI in [28] (combination with AMP) is listed as 0.75. Further, in data set [28] (combination with CIP), the FICI turned out to be 1.06; the “Mode of Interaction” value is “Indifferent (in between 0.5 and 4)”. The compound also had a minimum inhibitory concentration (MIC) in [29] of 16 µg/mL (≈ 34.6 µM).
